Source: the supplement of paper PMC8612539
≈ marks a conversion by molar mass, not a printed value.

Tests used:
Mannheimia haemolytica = assay: minimum inhibitory concentration (MIC)
Experimental: (§1)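 Broth microdilution MIC (Sensititre BOPO7F bovine plate, CLSI methods) of 19 antimicrobials against field isolates of P. multocida, M. haemolytica, H. somni (deep nasopharyngeal swabs) and E. coli, Enterococcus spp. (rectal swabs) from weaned dairy heifers. Incubation 16-24 h at 35 C. MIC is the lowest concentration preventing visible growth. Values with <= or > lie at the tested range limits. Trimethoprim-sulfamethoxazole is given as the trimethoprim component of a 1:19 mixture.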

Enterococcus spp. = assay: minimum inhibitory concentration (MIC)
Experimental: as §1

CN[C@@H]1[C@H](O)[C@H](NC)[C@H]2O[C@@]3(O)C(=O)C[C@@H](C)O[C@H]3O[C@@H]2[C@H]1O [Spectinomycin]
minimum inhibitory concentration [µg/mL]
Details	Enterococcus spp.	Mannheimia haemolytica
isolate (source animal id): 2	64 (≈ 193 µM)	–
isolate (source animal id): 8	–	32 (≈ 96.3 µM)
isolate (source animal id): 13	–	32 (≈ 96.3 µM)
isolate (source animal id): 18	–	32 (≈ 96.3 µM)
isolate (source animal id): 21	–	32 (≈ 96.3 µM)
isolate (source animal id): 25	–	32 (≈ 96.3 µM)
isolate (source animal id): 27	–	32 (≈ 96.3 µM)
isolate (source animal id): 28	–	> 64
isolate (source animal id): 30	–	32 (≈ 96.3 µM)
isolate (source animal id): 31	–	> 64
isolate (source animal id): 32	–	32 (≈ 96.3 µM)
isolate (source animal id): 34	–	32 (≈ 96.3 µM)
isolate (source animal id): 35	> 64	–
isolate (source animal id): 36	–	32 (≈ 96.3 µM)
isolate (source animal id): 37	–	32 (≈ 96.3 µM)
isolate (source animal id): 40	–	32 (≈ 96.3 µM)
isolate (source animal id): 41	–	32 (≈ 96.3 µM)
isolate (source animal id): 42	64 (≈ 193 µM)	–
isolate (source animal id): 43	–	32 (≈ 96.3 µM)
isolate (source animal id): 44	64 (≈ 193 µM)	–
isolate (source animal id): 46	–	32 (≈ 96.3 µM)
isolate (source animal id): 49	–	32 (≈ 96.3 µM)
isolate (source animal id): 50	–	32 (≈ 96.3 µM)
isolate (source animal id): 51	–	32 (≈ 96.3 µM)
isolate (source animal id): 52	–	32 (≈ 96.3 µM)
isolate (source animal id): 53	–	32 (≈ 96.3 µM)
isolate (source animal id): 55	–	32 (≈ 96.3 µM)
isolate (source animal id): 56	–	32 (≈ 96.3 µM)
isolate (source animal id): 57	–	> 64
isolate (source animal id): 79	64 (≈ 193 µM)	–
isolate (source animal id): 88	32 (≈ 96.3 µM)	–
isolate (source animal id): 91	32 (≈ 96.3 µM)	–
isolate (source animal id): 92	16 (≈ 48.1 µM)	–
isolate (source animal id): 100	–	> 64
isolate (source animal id): 103	–	32 (≈ 96.3 µM)
isolate (source animal id): 107	–	32 (≈ 96.3 µM)
isolate (source animal id): 108	–	> 64
isolate (source animal id): 111	32 (≈ 96.3 µM)	–
isolate (source animal id): 112	–	32 (≈ 96.3 µM)
isolate (source animal id): 113	–	> 64
isolate (source animal id): 121	–	32 (≈ 96.3 µM)
isolate (source animal id): 122	> 64	32 (≈ 96.3 µM)
isolate (source animal id): 123	64 (≈ 193 µM)	> 64
isolate (source animal id): 126	–	32 (≈ 96.3 µM)
isolate (source animal id): 133	64 (≈ 193 µM)	32 (≈ 96.3 µM)
isolate (source animal id): 135	–	> 64
isolate (source animal id): 138	–	32 (≈ 96.3 µM)
isolate (source animal id): 141	–	> 64
isolate (source animal id): 142	–	32 (≈ 96.3 µM)
isolate (source animal id): 145	–	16 (≈ 48.1 µM)
isolate (source animal id): 149	–	32 (≈ 96.3 µM)
isolate (source animal id): 151	–	32 (≈ 96.3 µM)
isolate (source animal id): 152	–	16 (≈ 48.1 µM)
isolate (source animal id): 154	–	32 (≈ 96.3 µM)
isolate (source animal id): 158	64 (≈ 193 µM)	–
isolate (source animal id): 159	–	16 (≈ 48.1 µM)
isolate (source animal id): 162	–	16 (≈ 48.1 µM)
isolate (source animal id): 168	64 (≈ 193 µM)	–
isolate (source animal id): 169	64 (≈ 193 µM)	–
isolate (source animal id): 170	–	32 (≈ 96.3 µM)
isolate (source animal id): 171	64 (≈ 193 µM)	32 (≈ 96.3 µM)
isolate (source animal id): 172	–	32 (≈ 96.3 µM)
isolate (source animal id): 173	–	32 (≈ 96.3 µM)
isolate (source animal id): 175	64 (≈ 193 µM)	–
isolate (source animal id): 177	64 (≈ 193 µM)	–
isolate (source animal id): 179	–	32 (≈ 96.3 µM)
isolate (source animal id): 180	–	32 (≈ 96.3 µM)
isolate (source animal id): 181	64 (≈ 193 µM)	–
isolate (source animal id): 182	64 (≈ 193 µM)	–
isolate (source animal id): 183	64 (≈ 193 µM)	32 (≈ 96.3 µM)
isolate (source animal id): 186	–	32 (≈ 96.3 µM)
isolate (source animal id): 187	64 (≈ 193 µM)	32 (≈ 96.3 µM)
isolate (source animal id): 188	–	32 (≈ 96.3 µM)
isolate (source animal id): 190	64 (≈ 193 µM)	32 (≈ 96.3 µM)
isolate (source animal id): 191	–	32 (≈ 96.3 µM)
isolate (source animal id): 192	–	32 (≈ 96.3 µM)
isolate (source animal id): 194	64 (≈ 193 µM)	–
isolate (source animal id): 195	64 (≈ 193 µM)	–
isolate (source animal id): 197	64 (≈ 193 µM)	–
isolate (source animal id): 201	–	32 (≈ 96.3 µM)
isolate (source animal id): 202	–	32 (≈ 96.3 µM)
isolate (source animal id): 209	–	32 (≈ 96.3 µM)
isolate (source animal id): 211	64 (≈ 193 µM)	32 (≈ 96.3 µM)
isolate (source animal id): 214	64 (≈ 193 µM)	–
isolate (source animal id): 220	–	32 (≈ 96.3 µM)
isolate (source animal id): 221	–	32 (≈ 96.3 µM)
isolate (source animal id): 222	64 (≈ 193 µM)	–
isolate (source animal id): 223	64 (≈ 193 µM)	≤ 8
isolate (source animal id): 228	64 (≈ 193 µM)	–
isolate (source animal id): 230	64 (≈ 193 µM)	–
isolate (source animal id): 233	–	32 (≈ 96.3 µM)
isolate (source animal id): 235	64 (≈ 193 µM)	–
isolate (source animal id): 236	64 (≈ 193 µM)	–
isolate (source animal id): 237	–	32 (≈ 96.3 µM)
isolate (source animal id): 239	64 (≈ 193 µM)	–
isolate (source animal id): 241	64 (≈ 193 µM)	32 (≈ 96.3 µM)
isolate (source animal id): 244	64 (≈ 193 µM)	–
isolate (source animal id): 246	64 (≈ 193 µM)	–
isolate (source animal id): 247	64 (≈ 193 µM)	–
isolate (source animal id): 250	64 (≈ 193 µM)	–
isolate (source animal id): 252	64 (≈ 193 µM)	32 (≈ 96.3 µM)
isolate (source animal id): 253	–	> 64
isolate (source animal id): 259	–	32 (≈ 96.3 µM)
isolate (source animal id): 260	–	> 64
isolate (source animal id): 262	–	32 (≈ 96.3 µM)
isolate (source animal id): 268	32 (≈ 96.3 µM)	–
isolate (source animal id): 282	16 (≈ 48.1 µM)	32 (≈ 96.3 µM)
isolate (source animal id): 285	> 64	–
isolate (source animal id): 287	–	32 (≈ 96.3 µM)
isolate (source animal id): 288	–	32 (≈ 96.3 µM)
isolate (source animal id): 289	64 (≈ 193 µM)	–
isolate (source animal id): 290	64 (≈ 193 µM)	–
isolate (source animal id): 291	–	32 (≈ 96.3 µM)
isolate (source animal id): 293	–	16 (≈ 48.1 µM)
isolate (source animal id): 296	64 (≈ 193 µM)	–
isolate (source animal id): 298	64 (≈ 193 µM)	16 (≈ 48.1 µM)
isolate (source animal id): 299	–	32 (≈ 96.3 µM)
isolate (source animal id): 300	–	32 (≈ 96.3 µM)
isolate (source animal id): 301	32 (≈ 96.3 µM)	–
isolate (source animal id): 302	–	32 (≈ 96.3 µM)
isolate (source animal id): 304	–	32 (≈ 96.3 µM)
isolate (source animal id): 306	–	32 (≈ 96.3 µM)
isolate (source animal id): 308	–	32 (≈ 96.3 µM)
isolate (source animal id): 309	–	32 (≈ 96.3 µM)
isolate (source animal id): 310	64 (≈ 193 µM)	–
isolate (source animal id): 313	–	16 (≈ 48.1 µM)
isolate (source animal id): 318	–	16 (≈ 48.1 µM)
isolate (source animal id): 320	64 (≈ 193 µM)	32 (≈ 96.3 µM)
isolate (source animal id): 321	–	16 (≈ 48.1 µM)
isolate (source animal id): 323	–	32 (≈ 96.3 µM)
isolate (source animal id): 324	–	16 (≈ 48.1 µM)
isolate (source animal id): 326	–	16 (≈ 48.1 µM)
isolate (source animal id): 328	–	16 (≈ 48.1 µM)
isolate (source animal id): 329	–	16 (≈ 48.1 µM)
isolate (source animal id): 331	64 (≈ 193 µM)	–
isolate (source animal id): 333	64 (≈ 193 µM)	16 (≈ 48.1 µM)
isolate (source animal id): 335	–	16 (≈ 48.1 µM)
isolate (source animal id): 338	–	16 (≈ 48.1 µM)
isolate (source animal id): 341	64 (≈ 193 µM)	–
